Experimental data reported in patent publication US7485641B2, “Substituted 3-amino-pyrrolidino-4-lactams” (Pfizer, Inc., priority 2006, dated 2009).
Where a name gives a salt, the structure may show the parent alone.

target: T1, DPP-IV (Homo sapiens, UniProt P27487); assay: In vitro assay for dipeptidyl peptidase inhibition; format: biochemical; details: at 300 nM; n-value given in brackets
T1 construct: purchased Enzyme Systems Products SPE-01
T1 sequence (P27487 whole entry, species assumed): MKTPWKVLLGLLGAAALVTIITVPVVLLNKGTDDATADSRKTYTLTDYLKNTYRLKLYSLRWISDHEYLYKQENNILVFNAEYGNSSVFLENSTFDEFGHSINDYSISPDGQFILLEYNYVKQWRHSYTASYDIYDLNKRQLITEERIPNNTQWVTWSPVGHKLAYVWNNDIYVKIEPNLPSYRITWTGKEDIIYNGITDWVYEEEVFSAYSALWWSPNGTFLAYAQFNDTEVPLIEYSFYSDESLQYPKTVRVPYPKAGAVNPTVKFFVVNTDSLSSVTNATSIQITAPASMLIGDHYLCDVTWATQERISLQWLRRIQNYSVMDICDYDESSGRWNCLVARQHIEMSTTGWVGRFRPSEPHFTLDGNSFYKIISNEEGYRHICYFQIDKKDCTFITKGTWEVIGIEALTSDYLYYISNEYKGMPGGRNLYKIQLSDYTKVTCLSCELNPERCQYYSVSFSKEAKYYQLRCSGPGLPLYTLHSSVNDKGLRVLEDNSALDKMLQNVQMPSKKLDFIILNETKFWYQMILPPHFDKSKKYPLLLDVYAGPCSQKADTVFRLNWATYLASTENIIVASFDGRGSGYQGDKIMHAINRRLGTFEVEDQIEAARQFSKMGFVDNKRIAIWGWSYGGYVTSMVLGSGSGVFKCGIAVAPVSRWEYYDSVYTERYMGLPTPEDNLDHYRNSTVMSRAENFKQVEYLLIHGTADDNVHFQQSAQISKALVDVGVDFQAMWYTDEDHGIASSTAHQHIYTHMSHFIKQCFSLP

SMILES | DPP-IV Percent Inhibition at 300 nM
COC1(C)CCN(c2ncnc(N3C[C@H](N)[C@@H](N4CCCCC4=O)C3)n2)CC1.O=C(O)C(F)(F)F [Example 36, 1-((3S,4S)-4-Amino-1-(4-(4-methoxy-4-methylpiperidin-1-yl)-1,3,5-triazin-2-yl)pyrrolidin-3-yl)piperidin-2-onetrifluoroacetate] | 22.2%(4)
N[C@H]1CN(c2ncnc(N3CC(Oc4ccc(F)c(F)c4)C3)n2)C[C@@H]1N1CCCCC1=O.O=C(O)C(F)(F)F [Example 49, 1-((3S,4S)-4-Amino-1-(4-(3-(3,4-difluorophenoxy)azetidin-1-yl)-1,3,5-triazin-2-yl)pyrrolidin-3-yl)piperidin-2-onetrifluoroacetate] | 19.6%(4)
COc1cc2c(cc1OC)CN(c1ncnc(N3C[C@H](N)[C@@H](N4CCCCC4=O)C3)n1)CC2.O=C(O)C(F)(F)F [Example 59, 1-((3S,4S)-4-Amino-1-(4-(6,7-dimethoxy-3,4-dihydroisoquinolin-2(1H)-yl)-1,3,5-triazin-2-yl)pyrrolidin-3-yl)piperidin-2-onetrifluoroacetate] | 44.3%(4)

same assay, conditions: at 300 nM; n-value given in brackets; read-out: DPP-IV Percent Inhibition at 300 nM

inhibition at 0.3 µM [%] | SMILES
6.8 | CC1(C)CN(c2ncnc(N3C[C@H](N)[C@@H](N4CCCCC4=O)C3)n2)CC1(C)C [Example 46, 1-((3S,4S)-4-amino-1-(4-(3,3,4,4-tetramethylpyrrolidin-1-yl)-1,3,5-triazin-2-yl)pyrrolidin-3-yl)piperidin-2-one]
32.6 | N[C@H]1CN(c2cc(N3Cc4cc(Cl)c(Cl)cc4C3)ncn2)C[C@@H]1N1CCCCC1=O [Example 54, 1-((3S,4S)-4-amino-1-(6-(5,6-dichloroisoindolin-2-yl)pyrimidin-4-yl)pyrrolidin-3-yl)piperidin-2-one]

same assay, conditions: n-value given in brackets; read-out: DPP-IV IC50

IC50 [nM] | SMILES
109 | N#Cc1ccccc1OC1CCN(c2ncnc(N3C[C@H](N)[C@@H](N4CCCCC4=O)C3)n2)CC1 [Example 37, 2-(1-(4-((3S,4S)-3-Amino-4-(2-oxopiperidin-1-yl)pyrrolidin-1-yl)-1,3,5-triazin-2-yl)piperidin-4-yloxy)benzonitriletrifluoroacetate]
205 | N[C@H]1CN(c2ncnc(N3CC[C@@H](O)C3)n2)C[C@@H]1N1CCCCC1=O [Example 38, 1-((3S,4S)-4-Amino-1-(4-((R)-3-hydroxypyrrolidin-1-yl)-1,3,5-triazin-2-yl)pyrrolidin-3-yl)piperidin-2-onetrifluoroacetate]
325 | CO[C@@H]1CCN(c2ncnc(N3C[C@H](N)[C@@H](N4CCCCC4=O)C3)n2)C1 [Example 39, 1-((3S,4S)-4-Amino-1-(4-((R)-3-methoxypyrrolidin-1-yl)-1,3,5-triazin-2-yl)pyrrolidin-3-yl)piperidin-2-onetrifluoroacetate]
566 | CO[C@H]1CCN(c2ncnc(N3C[C@H](N)[C@@H](N4CCCCC4=O)C3)n2)C1 [Example 40, 1-((3S,4S)-4-Amino-1-(4-((S)-3-methoxypyrrolidin-1-yl)-1,3,5-triazin-2-yl)pyrrolidin-3-yl)piperidin-2-onetrifluoroacetate]
90 | CC(=O)N[C@H]1CCN(c2ncnc(N3C[C@H](N)[C@@H](N4CCCCC4=O)C3)n2)C1 [Example 41, N-((S)-1-{4-[(3S,4S)-3-Amino-4-(2-oxo-piperidin-1-yl)-pyrrolidin-1-yl]-[1,3,5]triazin-2-yl}-pyrrolidin-3-yl)-acetamidetrifluoroacetate]
80 | N[C@H]1CN(c2ncnc(N3CC[C@@H](NC(=O)C(F)(F)F)C3)n2)C[C@@H]1N1CCCCC1=O [Example 42, N-((R)-1-(4-((3S,4S)-3-Amino-4-(2-oxopiperidin-1-yl)pyrrolidin-1-yl)-1,3,5-triazin-2-yl)pyrrolidin-3-yl)-2,2,2-trifluoroacetamidetrifluoroacetate]
316 | CC1(O)CCN(c2ncnc(N3C[C@H](N)[C@@H](N4CCCCC4=O)C3)n2)C1 (stereo partly drawn) [Example 44, 1-((3S,4S)-4-amino-1-(4-(3-hydroxy-3-methylpyrrolidin-1-yl)-1,3,5-triazin-2-yl)pyrrolidin-3-yl)piperidin-2-onetrifluoroacetate]
1740 | N[C@H]1CN(c2cc(N3CC(F)C3)ncn2)C[C@@H]1N1CCCC1=O [Example 48, 1-((3S,4S)-4-Amino-1-(6-(3-fluoroazetidin-1-yl)pyrimidin-4-yl)pyrrolidin-3-yl)pyrrolidin-2-onedihydrochloride]
19.2 | N[C@H]1CN(c2ncnc(N3Cc4ccccc4C3)n2)C[C@@H]1N1CC(F)(F)CCC1=O [Example 50, 1-{(3S,4S)-4-amino-1-[4-(1,3-dihydro-isoindol-2-yl)-[1,3,5]triazin-2-yl]-pyrrolidin-3-yl}-5,5-difluoro-piperidin-2-one]
48.3 | N[C@H]1CN(c2ncnc(N3Cc4ccccc4C3)n2)C[C@@H]1N1CCCCC1=O [Example 51, 1-{(3S,4S)-4-Amino-1-[4-(1,3-dihydro-isoindol-2-yl)-[1,3,5]triazin-2-yl]-pyrrolidin-3-yl}-piperidin-2-onetrifluoroacetate]
176 | N[C@H]1CN(c2cc(N3Cc4ccccc4C3)ncn2)C[C@@H]1N1CCCC1=O [Example 52, 1-((3S,4S)-4-Amino-1-(6-(isoindolin-2-yl)pyrimidin-4-yl)pyrrolidin-3-yl)pyrrolidin-2-onehydrochloride]
92.4 | N[C@H]1CN(c2cc(N3Cc4ccc(C(F)(F)F)cc4C3)ncn2)C[C@@H]1N1CCCCC1=O [Example 53, 1-((3S,4S)-4-amino-1-(6-(5-(trifluoromethyl)isoindolin-2-yl)pyrimidin-4-yl)pyrrolidin-3-yl)piperidin-2-onetrifluoroacetate]
101 | Cc1ccc(C)c2c1CN(c1cc(N3C[C@H](N)[C@@H](N4CCCCC4=O)C3)ncn1)C2 [Example 55, 1-{(3S,4S)-4-Amino-1-[6-(4,7-dimethyl-1,3-dihydro-isoindol-2-yl)-pyrimidin-4-yl]-pyrrolidin-3-yl}-piperidin-2-one]
85.3 | N[C@H]1CN(c2ncnc(N3CCc4ccccc4C3)n2)C[C@@H]1N1CCCCC1=O [Example 56, 1-{(3S,4S)-4-Amino-1-[4-(3,4-dihydro-1H-isoquinolin-2-yl)-[1,3,5]triazin-2-yl]-pyrrolidin-3-yl}-piperidin-2-onetrifluoroacetate]
317 | N[C@H]1CN(c2cc(N3CCc4ccccc4C3)ncn2)C[C@@H]1N1CCCC1=O [Example 57, 1-((3S,4S)-4-Amino-1-(6-(3,4-dihydroisoquinolin-2(1H)-yl)pyrimidin-4-yl)pyrrolidin-3-yl)pyrrolidin-2-onehydrochloride]
11.6 | CNS(=O)(=O)c1cccc2c1CCN(c1ncnc(N3C[C@H](N)[C@@H](N4CCCCC4=O)C3)n1)C2 [Example 58, 2-(4-((3S,4S)-3-Amino-4-(2-oxopiperidin-1-yl)pyrrolidin-1-yl)-1,3,5-triazin-2-yl)-N-methyl-1,2,3,4-tetrahydroisoquinoline-5-sulfonamidetrifluoroacetate]

SMILES | IC50 [nM]
N[C@H]1CN(c2ncnc(N3CCCCC3)n2)C[C@@H]1N1CCCCC1=O [Example 47, 1-[(3S,4S)-4-Amino-1-(4-piperidin-1-yl-[1,3,5]triazin-2-yl)-pyrrolidin-3-yl]-piperidin-2-onetrifluoroacetate] | 315
